Source: patent publication US12077503B2, “Substituted cyclic amides and their use as herbicides” (FMC CORPORATION, priority 2015, dated 2024)

What was measured:
Type in all cases: in vivo
[1] = test system: sedge, umbrella (small-flower umbrella sedge, Cyperus difformis); test: Test B flooded paddy test; conditions: Flood, 250 g ai/ha; for Sedge, Umbrella plant response rating: scale of 0 to 100 where 0 is no effect and 100 is complete control
Procedure, shortened: (§1)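 Response scored visually against untreated controls, 0 = no effect and 100 = complete control, 13–15 d after treatment in the greenhouse. Compounds added to paddy water held 3 cm above soil surface. Treatment given at 2-leaf stage.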

rice (Oryra sativa) = test: Test B flooded paddy test; conditions: Flood, 250 g ai/ha; 0 to 100 scale where 0 is no effect and 100 is complete control; 13 to 15 d
Procedure, shortened: as §1

[2] = test system: barnyardgrass (Echinochloa crus-galli); test: Test B flooded paddy test; conditions: Flood, 250 g ai/ha; 0 to 100 scale where 0 is no effect and 100 is complete control; 13 to 15 d
Procedure, shortened: as §1

[3] = test system: ducksalad (Heteranthera limosa); test: Test B flooded paddy test; conditions: Flood, 250 g ai/ha; 0 to 100 scale where 0 is no effect and 100 is complete control; 13 to 15 d
Procedure, shortened: as §1

[4] = test system: ragweed (common ragweed, Ambrosia elatior); test: Test A preemergence
Procedure, shortened: (§2)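 Each rating is a visual injury score from 0 to 100 given about 10 d after treatment, judged against untreated controls kept alongside in the greenhouse. In loam soil–sand blend, seeds got a preemergence directed soil spray, while postemergence plants were 2 to 10 cm tall at spraying.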

[5] = test system: giant foxtail (Setaria faberii); test: Test A preemergence
Procedure, shortened: as §2

Kochia (Kochia scoparia) [6] = test: Test A preemergence
Procedure, shortened: as §2

[7] = test system: barnyardgrass (Echinochloa crus-galli); test: Test A preemergence
Procedure, shortened: as §2

[8] = test system: pigweed (Amaranthus retroflexus); test: Test A preemergence
[9] = test system: ryegrass, Italian (Italian ryegrass, Lolium multiflorum); test: Test A preemergence
Procedure, shortened: as §2

[10] = test system: Galium (catchweed bedstraw, Galium aparine); test: Test A postemergence; conditions: postemergence, 0 to 100 scale (0 no effect, 100 complete control)
Procedure, shortened: as §2

[11] = test system: ragweed (common ragweed, Ambrosia elatior); test: Test A postemergence; conditions: postemergence, 0 to 100 scale (0 no effect, 100 complete control)
Procedure, shortened: as §2

[12] = test system: giant foxtail (Setaria faberii); test: Test A postemergence; conditions: postemergence, 0 to 100 scale (0 no effect, 100 complete control)
Procedure, shortened: as §2

Kochia (Kochia scoparia) [13] = test: Test A postemergence; conditions: postemergence, 0 to 100 scale (0 no effect, 100 complete control)
Procedure, shortened: as §2

corn (Zea mays) = test: Test A postemergence; conditions: postemergence, 0 to 100 scale (0 no effect, 100 complete control)
Procedure, shortened: as §2

[14] = test system: barnyardgrass (Echinochloa crus-galli); test: Test A postemergence; conditions: postemergence, 0 to 100 scale (0 no effect, 100 complete control)
Procedure, shortened: as §2

[15] = test system: pigweed (Amaranthus retroflexus); test: Test A postemergence; conditions: postemergence, 0 to 100 scale (0 no effect, 100 complete control)
Procedure, shortened: as §2

[16] = test system: ryegrass, Italian (Italian ryegrass, Lolium multiflorum); test: Test A postemergence; conditions: postemergence, 0 to 100 scale (0 no effect, 100 complete control)
Procedure, shortened: as §2

[17] = test system: blackgrass (Alopecurus myosuroides); test: Test A postemergence; conditions: postemergence, 0 to 100 scale (0 no effect, 100 complete control)
Procedure, shortened: as §2

[18] = test system: wheat (Triticum aestivum); test: Test A postemergence; conditions: postemergence, 0 to 100 scale (0 no effect, 100 complete control)
Procedure, shortened: as §2

[19] = 125 g ai/ha, Preemergence, visual injury after approximately 10 d, 0 to 100 scale where 0 is no effect and 100 is complete control
[20] = 500 g ai/ha, preemergence, 0 to 100 scale, 0 = no effect, 100 = complete control
[21] = 125 g ai/ha, visual rating after approx. 10 d
[22] = 500 g ai/ha, visual injury, approx. 10 d
[23] = 125 g ai/ha, preemergence, visual rating after approx. 10 d, 0 to 100 scale where 0 is no effect and 100 is complete control
[24] = 125 g ai/ha, visual injury after approximately 10 d

SMILES	Plant response rating, Rice (rice (Oryra sativa))	Plant response rating, Barnyardgrass [2]	Plant response rating, Ducksalad [3]	Plant response rating, Ragweed [4, 20]	Plant response rating, Foxtail, Giant [5, 19]	Plant response rating, Foxtail, Giant [5, 20]	Plant response rating, Kochia (Kochia (Kochia scoparia) [6]; [19])	Plant response rating, Kochia (Kochia (Kochia scoparia) [6]; [20])	Plant response rating, Barnyardgrass [7, 19]	Plant response rating, Barnyardgrass [7, 20]	Plant response rating, Pigweed [8, 20]	Plant response rating, Ryegrass, Italian [9, 20]	Plant response rating, Galium [10, 22]	Plant response rating, Ragweed [11, 22]	Plant response rating, Foxtail, Giant [12, 22]	Plant response rating, Kochia (Kochia (Kochia scoparia) [13]; [22])	Plant response rating, Corn (corn (Zea mays); [22])	Plant response rating, Barnyardgrass [14, 21]	Plant response rating, Barnyardgrass [14, 22]	Plant response rating, Pigweed [15, 22]	further results
Cc1cccc(C2CN(C)C(=O)C2C(=O)Nc2ccccc2F)c1 (stereo not drawn) [Compound 666]	0	75	85	70	100	100	20	60	90	90	20	50	40	0	90	30	80	90	90	0	Plant response rating, Sedge, Umbrella ([1]; 0 to 100 scale where 0 is no effect and 100 is complete control, 13 to 15 d): 0; Plant response rating, Ragweed [4, 19]: 0; Plant response rating, Pigweed [8, 19]: 0; Plant response rating, Ryegrass, Italian [9, 19]: 20; Plant response rating, Galium [10, 21]: 30; Plant response rating, Ragweed [11, 21]: 0; Plant response rating, Foxtail, Giant [12, 21]: 90; Plant response rating, Kochia (Kochia (Kochia scoparia) [13]; [21]): 0; Plant response rating, Corn (corn (Zea mays); [21]): 60; Plant response rating, Pigweed [15, 21]: 0; Plant response rating, Ryegrass, Italian [16, 21]: 20; Plant response rating, Ryegrass, Italian [16, 22]: 60; Plant response rating, Blackgrass [17, 21]: 60; Plant response rating, Blackgrass [17, 22]: 60; Plant response rating, Wheat [18, 21]: 20; Plant response rating, Wheat [18, 22]: 60
CN1CC(c2ccc(C(C)(F)F)cc2)C(C(=O)Nc2ccccc2S(C)(=O)=O)C1=O (stereo not drawn) [Compound 692]	0	0	20	70	80	90	70	80	70	90	90	60	60	30	80	60	50	70	80	50	Sedge, Umbrella plant response rating [1]: 0; Plant response rating, Ragweed [4, 23]: 50; Plant response rating, Pigweed [8, 23]: 80; Plant response rating, Ryegrass, Italian [9, 23]: 20; Plant response rating, Galium [10, 24]: 0; Plant response rating, Ragweed [11, 24]: 0; Plant response rating, Foxtail, Giant [12, 24]: 70; Plant response rating, Kochia (Kochia (Kochia scoparia) [13]; [24]): 40; Plant response rating, Corn (corn (Zea mays); [24]): 0; Plant response rating, Pigweed [15, 24]: 40; Plant response rating, Ryegrass, Italian [16, 24]: 50; Plant response rating, Ryegrass, Italian [16, 22]: 60; Plant response rating, Blackgrass [17, 21]: 50; Plant response rating, Blackgrass [17, 22]: 60; Plant response rating, Wheat [18, 24]: 0; Plant response rating, Wheat [18, 22]: 50
CN1CC(c2ccc(C(C)(F)F)cc2)C(C(=O)Nc2ccc(F)cc2F)C1=O (stereo not drawn) [Compound 693]	20	75	70	60	90	90	80	90	80	90	80	70	70	10	80	70	70	70	80	70	Sedge, Umbrella plant response rating [1]: 0; Plant response rating, Ragweed [4, 23]: 50; Plant response rating, Pigweed [8, 23]: 70; Plant response rating, Ryegrass, Italian [9, 23]: 60; Plant response rating, Galium [10, 24]: 60; Plant response rating, Ragweed [11, 24]: 0; Plant response rating, Foxtail, Giant [12, 24]: 80; Plant response rating, Kochia (Kochia (Kochia scoparia) [13]; [24]): 60; Plant response rating, Corn (corn (Zea mays); [24]): 40; Plant response rating, Pigweed [15, 24]: 10; Plant response rating, Ryegrass, Italian [16, 24]: 50; Plant response rating, Ryegrass, Italian [16, 22]: 70; Plant response rating, Blackgrass [17, 21]: 10; Plant response rating, Blackgrass [17, 22]: 50; Plant response rating, Wheat [18, 24]: 0; Plant response rating, Wheat [18, 22]: 50
CCC1(C(=O)Nc2cccc(F)c2F)C(=O)N(C)CC1c1cccc(C(F)(F)F)c1 (stereo not drawn) [Compound 694]	0	0	20	0	90	90	0	0	70	90	0	10	0	0	80	0	0	50	70	50	Sedge, Umbrella plant response rating [1]: 0; Plant response rating, Ragweed [4, 23]: 0; Plant response rating, Pigweed [8, 23]: 0; Plant response rating, Ryegrass, Italian [9, 23]: 0; Plant response rating, Galium [10, 24]: 0; Plant response rating, Ragweed [11, 24]: 0; Plant response rating, Foxtail, Giant [12, 24]: 50; Plant response rating, Kochia (Kochia (Kochia scoparia) [13]; [24]): 0; Plant response rating, Corn (corn (Zea mays); [24]): 0; Plant response rating, Pigweed [15, 24]: 20; Plant response rating, Ryegrass, Italian [16, 24]: 0; Plant response rating, Ryegrass, Italian [16, 22]: 50; Plant response rating, Blackgrass [17, 21]: 10; Plant response rating, Blackgrass [17, 22]: 30; Plant response rating, Wheat [18, 24]: 0; Plant response rating, Wheat [18, 22]: 0
